Data reported in US20240269139A1, “COMPOUNDS FOR TARGETED PROTEIN DEGRADATION OF KINASES” (DANA-FARBER CANCER INSTITUTE, INC., priority 2020, published 2024).
Like-named read-outs stand apart in the source and are kept apart here.

Key:
Format in all cases: cell-based
[1] = biological target: protein kinases (human kinome) (Homo sapiens, UniProt Q00536)
[2] = biological target: T1, protein kinases (human kinome) (Homo sapiens, UniProt Q96D53); settings: experiment wp137; for logFC: COQ8B (Q96D53-1)
T1 sequence (Q96D53 1-544): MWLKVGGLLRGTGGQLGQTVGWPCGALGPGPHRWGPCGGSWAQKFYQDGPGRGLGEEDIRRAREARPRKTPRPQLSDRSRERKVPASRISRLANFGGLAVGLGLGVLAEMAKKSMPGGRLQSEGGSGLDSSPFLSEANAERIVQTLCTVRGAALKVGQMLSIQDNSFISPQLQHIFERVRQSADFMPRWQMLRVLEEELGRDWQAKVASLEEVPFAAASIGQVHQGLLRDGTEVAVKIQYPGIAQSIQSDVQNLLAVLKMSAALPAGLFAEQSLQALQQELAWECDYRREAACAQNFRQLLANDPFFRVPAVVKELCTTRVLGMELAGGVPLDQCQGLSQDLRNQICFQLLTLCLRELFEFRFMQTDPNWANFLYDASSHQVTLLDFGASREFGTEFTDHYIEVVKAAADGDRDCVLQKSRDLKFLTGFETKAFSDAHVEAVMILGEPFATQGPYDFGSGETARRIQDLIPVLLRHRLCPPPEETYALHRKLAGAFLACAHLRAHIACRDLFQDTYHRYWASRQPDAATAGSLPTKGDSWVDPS

[3] = biological target: T2, protein kinases (human kinome) (Homo sapiens, UniProt Q9Y616); settings: experiment wp146; for logFC: IRAK3 (Q9Y616)
T2 sequence (Q9Y616 1-596): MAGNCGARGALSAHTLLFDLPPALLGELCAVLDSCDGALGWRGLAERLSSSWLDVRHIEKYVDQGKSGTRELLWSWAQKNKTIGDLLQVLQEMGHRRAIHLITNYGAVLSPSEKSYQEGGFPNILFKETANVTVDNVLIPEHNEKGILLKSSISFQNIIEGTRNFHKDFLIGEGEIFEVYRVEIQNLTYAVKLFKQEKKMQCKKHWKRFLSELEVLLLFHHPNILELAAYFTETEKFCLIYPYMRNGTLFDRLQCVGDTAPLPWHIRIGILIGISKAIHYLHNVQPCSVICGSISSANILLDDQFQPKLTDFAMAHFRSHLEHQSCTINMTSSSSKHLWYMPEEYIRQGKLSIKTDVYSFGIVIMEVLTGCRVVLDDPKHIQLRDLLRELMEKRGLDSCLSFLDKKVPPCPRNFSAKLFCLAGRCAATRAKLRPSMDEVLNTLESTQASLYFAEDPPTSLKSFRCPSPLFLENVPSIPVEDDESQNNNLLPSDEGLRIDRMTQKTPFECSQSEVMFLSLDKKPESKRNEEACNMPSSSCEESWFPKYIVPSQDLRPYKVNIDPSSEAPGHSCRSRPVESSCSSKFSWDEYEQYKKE

[4] = biological target: protein kinases (human kinome) (Homo sapiens, UniProt Q13882); settings: for logFC PTK6 (Q13882): Experiment wp114, direction of change down; for logFC: PTK6 (Q13882), experiment wp114
[5] = biological target: T3, protein kinases (human kinome) (Homo sapiens, UniProt Q9NWZ3); settings: for logFC: IRAK4 (Q9NWZ3-1)
T3 sequence (Q9NWZ3 1-460): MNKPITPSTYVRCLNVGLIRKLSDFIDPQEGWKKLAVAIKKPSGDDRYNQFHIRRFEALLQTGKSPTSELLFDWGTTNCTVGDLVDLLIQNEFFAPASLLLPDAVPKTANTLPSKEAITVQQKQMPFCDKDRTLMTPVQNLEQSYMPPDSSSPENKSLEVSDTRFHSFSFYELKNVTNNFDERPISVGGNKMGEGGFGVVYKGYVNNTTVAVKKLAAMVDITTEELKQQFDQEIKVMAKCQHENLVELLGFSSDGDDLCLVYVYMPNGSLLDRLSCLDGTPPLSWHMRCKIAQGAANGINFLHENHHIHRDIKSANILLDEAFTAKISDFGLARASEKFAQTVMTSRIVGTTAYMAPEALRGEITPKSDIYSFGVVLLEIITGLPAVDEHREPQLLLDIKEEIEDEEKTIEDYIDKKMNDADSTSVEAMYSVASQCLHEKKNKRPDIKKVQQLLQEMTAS

protein kinases (human kinome) (Homo sapiens, UniProt Q00536), sequence (Q00536 whole entry): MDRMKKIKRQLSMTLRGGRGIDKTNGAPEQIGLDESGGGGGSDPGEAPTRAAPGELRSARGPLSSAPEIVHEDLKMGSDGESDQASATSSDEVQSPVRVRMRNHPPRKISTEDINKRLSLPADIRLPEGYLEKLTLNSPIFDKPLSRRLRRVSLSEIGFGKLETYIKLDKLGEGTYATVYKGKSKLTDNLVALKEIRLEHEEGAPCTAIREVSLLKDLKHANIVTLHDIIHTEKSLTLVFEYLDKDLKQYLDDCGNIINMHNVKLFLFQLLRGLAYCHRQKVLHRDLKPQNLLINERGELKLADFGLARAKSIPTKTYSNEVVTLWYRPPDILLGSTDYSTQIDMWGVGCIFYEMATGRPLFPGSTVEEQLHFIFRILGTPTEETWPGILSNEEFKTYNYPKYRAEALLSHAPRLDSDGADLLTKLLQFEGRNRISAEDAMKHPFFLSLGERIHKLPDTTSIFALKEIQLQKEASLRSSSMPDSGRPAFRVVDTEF
protein kinases (human kinome) (Homo sapiens, UniProt Q13882), sequence (Q13882 whole entry): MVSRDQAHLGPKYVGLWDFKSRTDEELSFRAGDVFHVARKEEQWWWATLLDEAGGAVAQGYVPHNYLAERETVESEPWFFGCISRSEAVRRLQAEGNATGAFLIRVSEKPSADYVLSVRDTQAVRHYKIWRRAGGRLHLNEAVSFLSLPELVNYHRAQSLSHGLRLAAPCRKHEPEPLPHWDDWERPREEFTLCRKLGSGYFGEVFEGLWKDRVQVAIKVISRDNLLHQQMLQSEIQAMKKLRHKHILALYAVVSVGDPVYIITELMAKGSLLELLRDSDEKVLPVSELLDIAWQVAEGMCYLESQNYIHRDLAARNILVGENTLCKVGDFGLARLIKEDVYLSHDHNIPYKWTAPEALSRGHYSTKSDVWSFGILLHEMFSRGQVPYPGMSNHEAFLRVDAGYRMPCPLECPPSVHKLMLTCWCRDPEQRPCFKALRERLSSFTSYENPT

Cc1cnc(Nc2ccc(N3CCN(CCCCCCC(=O)N[C@H](C(=O)N4C[C@H](O)C[C@H]4C(=O)N[C@@H](C)c4ccc(-c5scnc5C)cc4)C(C)(C)C)CC3)cc2)nc1Nc1cccc(S(=O)(=O)NC(C)(C)C)c1 [JWG.123]
logFC CDK16 (Q00536-1) ([1]; Experiment wp195): −0.5026
logFC of CDK16 (Q00536-1) ([1]; Experiment wp195): −0.5026

CC(C)(C)c1nc(-c2cccc(NS(=O)(=O)c3c(F)cccc3F)c2F)c(-c2ccnc(NCCOCCNC(=O)CCOCCOCCNc3cccc4c3C(=O)N(C3CCC(=O)NC3=O)C4=O)n2)s1 (stereo not drawn) [DD.03.106]
logFC [2]: −0.3442
logFC of COQ8B (Q96D53-1) [2]: −0.3442

Cc1cc(Nc2ncc(Br)c(Nc3cccc(F)c3C(N)=O)n2)ccc1S(=O)(=O)NCCOCCOCCOCCOCCNc1cccc2c1C(=O)N(C1CCC(=O)NC1=O)C2=O (stereo not drawn) [TMX.02.174]
logFC [3]: −1.343
logFC of IRAK3 (Q9Y616) [3]: −1.343

NC(=O)c1c(F)cccc1Nc1nc(Nc2ccc(S(=O)(=O)NCCOCCOCCOCCOCCNc3cccc4c3C(=O)N(C3CCC(=O)NC3=O)C4=O)cc2)ncc1Br (stereo not drawn) [TMX.02.138]
logFC [3]: −1.544
logFC of IRAK3 (Q9Y616) [3]: −1.544

Cc1ncsc1-c1ccc([C@H](C)NC(=O)[C@@H]2C[C@@H](O)CN2C(=O)[C@@H](NC(=O)CCOCCOCCN2CCN(c3ccc(Nc4ncc(Cl)c(Nc5ccccc5S(=O)(=O)C(C)C)n4)cc3)CC2)C(C)(C)C)cc1 [FMF.06.098.1]
logFC PTK6 (Q13882) [4]: −0.4401
logFC [4]: −0.4401
logFC of IRAK4 (Q9NWZ3-1) ([5]; Experiment wp108): −0.6505
logFC ([5]; experiment wp108): −0.6505
logFC ([5]; experiment wp131): −0.7086
logFC of IRAK4 (Q9NWZ3-1) ([5]; experiment wp131): −0.7086

CC(C)S(=O)(=O)c1ccccc1Nc1nc(Nc2ccc(N3CCN(CCOCCNC(=O)CNc4cccc5c4C(=O)N(C4CCC(=O)NC4=O)C5=O)CC3)cc2)ncc1Cl (stereo not drawn) [SK.3.91]
logFC CDK16 (Q00536-1) ([1]; Experiment wp172): −0.8169
logFC of CDK16 (Q00536-1) ([1]; Experiment wp172): −0.8169
logFC PTK6 (Q13882) [4]: −0.4171
logFC [4]: −0.4171

CC(C)S(=O)(=O)c1ccccc1Nc1nc(Nc2ccc(N3CCN(CCOCCOCCNC(=O)CNc4cccc5c4C(=O)N(C4CCC(=O)NC4=O)C5=O)CC3)cc2)ncc1Cl (stereo not drawn) [TL12.186]
logFC [2]: −0.4934
logFC of COQ8B (Q96D53-1) [2]: −0.4934
logFC ([5]; experiment wp131): −0.4293
logFC ([5]; experiment wp137): −0.4185
logFC of IRAK4 (Q9NWZ3-1) ([5]; experiment wp131): −0.4293
logFC of IRAK4 (Q9NWZ3-1) ([5]; experiment wp137): −0.4185
